From PMC9458453, “What is a supercoiling-sensitive gene? Insights from topoisomerase I inhibition in the Gram-negative bacterium Dickeya dadantii” (Nucleic Acids Research, 2022) come the findings set out here.

pIC50: −log10 of the molar value.

Test [1] deals with T1, topoisomerase I (topoI) (Dickeya dadantii, UniProt E0SBX6).
T1 construct: gene topA; N-terminally 6xhis-tagged topoisomerase I
Put plainly: pUC18 plasmid relaxation assay on agarose gel with purified topoI. The class given is biochemical.

The target in test [2] is T2, topoisomerase I (topoI) (Escherichia coli, UniProt P06612).
T2 construct: gene topA; commercial topoI (NEB)
T2 sequence (P06612 whole entry): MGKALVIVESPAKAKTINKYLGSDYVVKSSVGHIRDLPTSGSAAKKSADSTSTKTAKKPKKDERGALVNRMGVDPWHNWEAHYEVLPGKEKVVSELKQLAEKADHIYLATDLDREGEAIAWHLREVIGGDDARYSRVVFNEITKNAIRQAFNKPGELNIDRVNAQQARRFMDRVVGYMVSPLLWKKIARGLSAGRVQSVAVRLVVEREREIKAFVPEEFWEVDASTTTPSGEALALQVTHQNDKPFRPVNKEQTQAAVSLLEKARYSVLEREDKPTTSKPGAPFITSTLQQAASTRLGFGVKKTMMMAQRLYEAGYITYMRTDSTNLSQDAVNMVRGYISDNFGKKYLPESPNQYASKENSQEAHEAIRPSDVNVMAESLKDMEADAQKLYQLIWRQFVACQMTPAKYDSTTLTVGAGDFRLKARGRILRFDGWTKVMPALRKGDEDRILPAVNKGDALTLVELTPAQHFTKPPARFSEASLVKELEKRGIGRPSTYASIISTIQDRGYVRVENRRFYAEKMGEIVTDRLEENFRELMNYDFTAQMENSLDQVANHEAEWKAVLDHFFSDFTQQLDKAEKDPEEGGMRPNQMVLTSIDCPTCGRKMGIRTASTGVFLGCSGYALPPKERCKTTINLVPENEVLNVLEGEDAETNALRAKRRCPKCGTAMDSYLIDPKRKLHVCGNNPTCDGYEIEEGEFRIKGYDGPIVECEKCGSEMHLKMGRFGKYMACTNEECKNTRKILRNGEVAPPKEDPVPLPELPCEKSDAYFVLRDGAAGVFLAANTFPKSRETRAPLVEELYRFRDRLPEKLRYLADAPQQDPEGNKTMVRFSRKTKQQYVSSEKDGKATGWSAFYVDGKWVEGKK
In words: plasmid relaxation assay on agarose gel with purified commercial topoI. The test is classed as biochemical.

T1 sequence (E0SBX6 entry or part of it): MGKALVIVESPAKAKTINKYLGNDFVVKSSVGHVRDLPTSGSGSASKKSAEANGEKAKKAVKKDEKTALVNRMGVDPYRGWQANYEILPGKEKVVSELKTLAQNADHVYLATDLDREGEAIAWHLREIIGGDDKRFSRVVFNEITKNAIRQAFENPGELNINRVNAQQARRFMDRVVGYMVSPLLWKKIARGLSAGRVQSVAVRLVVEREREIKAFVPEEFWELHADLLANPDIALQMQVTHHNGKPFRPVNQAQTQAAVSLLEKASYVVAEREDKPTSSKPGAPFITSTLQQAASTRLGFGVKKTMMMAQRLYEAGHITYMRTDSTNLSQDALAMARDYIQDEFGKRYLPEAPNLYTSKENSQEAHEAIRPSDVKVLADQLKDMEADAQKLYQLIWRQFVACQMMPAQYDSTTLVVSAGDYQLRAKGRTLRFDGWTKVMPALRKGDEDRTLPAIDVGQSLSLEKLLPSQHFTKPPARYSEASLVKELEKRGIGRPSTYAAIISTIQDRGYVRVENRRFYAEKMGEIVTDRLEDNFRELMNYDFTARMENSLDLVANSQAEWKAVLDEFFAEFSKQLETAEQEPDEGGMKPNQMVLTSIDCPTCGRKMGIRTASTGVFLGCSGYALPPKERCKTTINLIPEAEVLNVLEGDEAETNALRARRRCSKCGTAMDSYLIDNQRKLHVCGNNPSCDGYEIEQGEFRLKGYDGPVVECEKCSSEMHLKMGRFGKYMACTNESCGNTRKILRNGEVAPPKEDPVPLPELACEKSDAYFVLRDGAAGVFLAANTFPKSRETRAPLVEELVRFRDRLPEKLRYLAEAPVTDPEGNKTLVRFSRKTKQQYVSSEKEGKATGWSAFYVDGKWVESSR

With `CNCCc1cc2c(c3c1ccc1cc4c(cc13)OCO4)OCO2` [SCN, seconeolitsine], the figures for the pIC50 in test [1] and in test [2] were 5.40 and ~5.15, respectively.
